Measurements taken from PubChem BioAssay AID330 (DTP/NCI, 2004).
Several values for one entry are separate records, joined by “and”; a condition that tells them apart may be missing. Identical values can stand only once. Toxic doses and inconclusive results are not listed. How the source made its calls: active means survival T/C of 150% or more; inactive means T/C below 125% in these data.

System: P388 leukemia ip, CD2F1 mice, survival T/C
Assay: NCI In Vivo Anticancer Drug Screen. Data for tumor model P388 Leukemia (intraperitoneal) in CD2F1 (CDF1) mice
Conditions: endpoint: median survival time, higher = longer survival
Procedure, shortened: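 Mice carrying the transplanted tumor received test compound or vehicle. Survival was recorded in each group, and the value is the treated-group measurement divided by that of the vehicle-treated control group.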

[1] = dose: 50.0 mg/kg/injection, schedule: Q01DX005 (ip), vehicle: Klucel (hydroxypropylcellulose) (HPC)
[2] = dose: 100.0 mg/kg/injection, schedule: Q01DX005 (ip), vehicle: Klucel (hydroxypropylcellulose) (HPC)
[3] = dose: 200.0 mg/kg/injection, schedule: Q01DX005 (ip), vehicle: Klucel (hydroxypropylcellulose) (HPC)
[4] = dose: 60.0 mg/kg/injection, schedule: Q01DX005 (ip), vehicle: saline with Tween-80
[5] = dose: 120.0 mg/kg/injection, schedule: Q01DX005 (ip), vehicle: saline with Tween-80
[6] = dose: 50.0 mg/kg/injection, schedule: Q01DX009 (ip), vehicle: saline with Tween-80
[7] = dose: 100.0 mg/kg/injection, schedule: Q01DX009 (ip), vehicle: saline with Tween-80
[8] = dose: 200.0 mg/kg/injection, schedule: Q01DX009 (ip), vehicle: saline with Tween-80
[9] = dose: 100.0 mg/kg/injection, schedule: Q04DX002 (ip), vehicle: saline with Tween-80
[10] = dose: 200.0 mg/kg/injection, schedule: Q04DX002 (ip), vehicle: saline with Tween-80
[11] = dose: 50.0 mg/kg/injection, schedule: Q01DX005 (ip), vehicle: saline with Tween-80
[12] = dose: 12.5 mg/kg/injection, schedule: Q01DX009 (ip), vehicle: water
[13] = dose: 25.0 mg/kg/injection, schedule: Q01DX009 (ip), vehicle: water
[14] = dose: 50.0 mg/kg/injection, schedule: Q01DX009 (ip), vehicle: water
[15] = dose: 1.56 mg/kg/injection, schedule: Q01DX009 (ip), vehicle: water
[16] = dose: 3.13 mg/kg/injection, schedule: Q01DX009 (ip), vehicle: water
[17] = dose: 6.25 mg/kg/injection, schedule: Q01DX009 (ip), vehicle: water

Measured: T/C

COc1cc(/C=C/c2ccc(O)c(OC)c2)cc(OC)c1
inactive: dose: 6.25 mg/kg/injection, schedule: Q01DX005 (ip), vehicle: Klucel (hydroxypropylcellulose) (HPC) 104 % of control | dose: 12.5 mg/kg/injection, schedule: Q01DX005 (ip), vehicle: Klucel (hydroxypropylcellulose) (HPC) 107 % of control | dose: 25.0 mg/kg/injection, schedule: Q01DX005 (ip), vehicle: Klucel (hydroxypropylcellulose) (HPC) 100 % of control | [1] 104 % of control and 108 % of control | [2] 95 % of control | [3] 88 % of control

CC(C)(C)OC(=O)NC(CCCCN)C(=O)O (configuration not stated)
inactive: dose: 50.0 mg/kg/injection, schedule: Q01DX005 (ip), vehicle: saline 103 % of control | dose: 100.0 mg/kg/injection, schedule: Q01DX005 (ip), vehicle: saline 100 % of control | dose: 200.0 mg/kg/injection, schedule: Q01DX005 (ip), vehicle: saline 100 % of control

COC(=O)c1nc(N)nc(C(=O)OC)c1C(=O)c1c(C)[nH]c2ccccc12
inactive: [4] 114 % of control | [5] 91 % of control

CC(=O)Nc1cc(C(=O)O)cc(C(=O)O)c1
inactive: [6] 109 % of control | [7] 105 % of control | [8] 92 % of control

COc1ccc(Oc2ccc(C(=O)C(CN(C)C)CN(C)C)cc2)cc1
inactive: dose: 3.75 mg/kg/injection, schedule: Q01DX005 (ip), vehicle: saline 121 % of control | dose: 7.5 mg/kg/injection, schedule: Q01DX005 (ip), vehicle: saline 124 % of control | dose: 30.0 mg/kg/injection, schedule: Q01DX005 (ip), vehicle: saline 88 % of control

[Cl][Pt].c1ccc([PH+](CCC[PH+](c2ccccc2)c2ccccc2)CCC[PH+](c2ccccc2)c2ccccc2)cc1
inactive: dose: 12.5 mg/kg/injection, schedule: Q04DX003 (ip), vehicle: saline with Tween-80 109 % of control | dose: 25.0 mg/kg/injection, schedule: Q04DX003 (ip), vehicle: saline with Tween-80 109 % of control | dose: 50.0 mg/kg/injection, schedule: Q04DX003 (ip), vehicle: saline with Tween-80 97 % of control | dose: 100.0 mg/kg/injection, schedule: Q04DX003 (ip), vehicle: saline with Tween-80 95 % of control | dose: 200.0 mg/kg/injection, schedule: Q04DX003 (ip), vehicle: saline with Tween-80 104 % of control

COc1ccc(C2(c3ccc(OC)cc3)N=C(n3nc(C)cc3C)NC2=O)cc1
inactive: dose: 50.0 mg/kg/injection, schedule: Q04DX002 (ip), vehicle: saline with Tween-80 94 % of control | [9] 98 % of control | [10] 94 % of control

Cc1cccc(O)c1O
inactive: dose: 100.0 mg/kg/injection, schedule: Q01DX009 (ip), vehicle: saline 102 % of control | dose: 200.0 mg/kg/injection, schedule: Q01DX009 (ip), vehicle: saline 121 % of control and 122 % of control

CCN1CCn2c(c(COC(=O)NC(C)C)c(COC(=O)NC(C)C)c2-c2ccc(Cl)c(Cl)c2)C1
inactive: dose: 6.25 mg/kg/injection, schedule: Q01DX009 (ip), vehicle: distilled water + Tween-80 116 % of control | dose: 12.5 mg/kg/injection, schedule: Q01DX009 (ip), vehicle: distilled water + Tween-80 122 % of control | dose: 18.8 mg/kg/injection, schedule: Q01DX009 (ip), vehicle: distilled water + Tween-80 97 % of control | dose: 25.0 mg/kg/injection, schedule: Q01DX009 (ip), vehicle: distilled water + Tween-80 116 % of control | dose: 37.5 mg/kg/injection, schedule: Q01DX009 (ip), vehicle: distilled water + Tween-80 114 % of control

CCOC(=O)C1=CC(C(=O)OCC)=C2C=CC=C3C=CC=C1N32
inactive: [4] 93 % of control | [5] 90 % of control | dose: 240.0 mg/kg/injection, schedule: Q01DX005 (ip), vehicle: saline with Tween-80 88 % of control

CC(C)(C)N=C(CCN1CCOCC1)Nc1cccc(Cl)c1
inactive: [6] 100 % of control | [7] 96 % of control | [8] 97 % of control

O=C1CN(c2cccc(C(F)(F)F)c2)C(=O)CN1/N=C/c1cccnc1
inactive: [11] 94 % of control | dose: 100.0 mg/kg/injection, schedule: Q01DX005 (ip), vehicle: saline with Tween-80 97 % of control | dose: 200.0 mg/kg/injection, schedule: Q01DX005 (ip), vehicle: saline with Tween-80 94 % of control

O=C(CCl)N1c2ccccc2Sc2ccccc21
inactive: [12] 105 % of control | [13] 100 % of control | [14] 107 % of control | dose: 100.0 mg/kg/injection, schedule: Q01DX009 (ip), vehicle: water 111 % of control | dose: 200.0 mg/kg/injection, schedule: Q01DX009 (ip), vehicle: water 114 % of control

CC1=NOC2C1Sc1ccccc1N2C (configuration not stated)
inactive: [1] 103 % of control | [2] 102 % of control | [3] 100 % of control

Nc1nc(=S)ss1
inactive: dose: 12.5 mg/kg/injection, schedule: Q01DX009 (ip), vehicle: Klucel (hydroxypropylcellulose) (HPC) 116 % of control and 98 % of control | dose: 25.0 mg/kg/injection, schedule: Q01DX009 (ip), vehicle: Klucel (hydroxypropylcellulose) (HPC) 107 % of control and 111 % of control | dose: 50.0 mg/kg/injection, schedule: Q01DX009 (ip), vehicle: Klucel (hydroxypropylcellulose) (HPC) 109 % of control and 119 % of control | dose: 100.0 mg/kg/injection, schedule: Q01DX009 (ip), vehicle: Klucel (hydroxypropylcellulose) (HPC) 109 % of control

O=C1c2ccc([N+](=O)[O-])cc2C(=O)N1CC[P+](c1ccccc1)(c1ccccc1)c1ccccc1
inactive: dose: 0.78 mg/kg/injection, schedule: Q01DX009 (ip), vehicle: water 100 % of control | [15] 100 % of control | [16] 103 % of control | [17] 98 % of control | [12] 98 % of control | [13] 106 % of control and 107 % of control

COC(=O)c1oc2c(c1C(=O)OC)c1ccccc1n2C(C)=O
inactive: [9] 102 % of control | [10] 105 % of control | dose: 400.0 mg/kg/injection, schedule: Q04DX002 (ip), vehicle: saline with Tween-80 100 % of control

CC(=O)Nc1nnc(-c2coc3ccc(C)cc3c2=O)s1
inactive: dose: 6.25 mg/kg/injection, schedule: Q01DX005 (ip), vehicle: saline with Tween-80 99 % of control | dose: 12.5 mg/kg/injection, schedule: Q01DX005 (ip), vehicle: saline with Tween-80 88 % of control and 89 % of control | dose: 25.0 mg/kg/injection, schedule: Q01DX005 (ip), vehicle: saline with Tween-80 86 % of control | [11] 86 % of control

O=c1c2ccccc2c2sc3c4ccccc4c(=O)c3c12
inactive: dose: 60.0 mg/kg/injection, schedule: Q01DX005 (ip), vehicle: Klucel (hydroxypropylcellulose) (HPC) 104 % of control | dose: 120.0 mg/kg/injection, schedule: Q01DX005 (ip), vehicle: Klucel (hydroxypropylcellulose) (HPC) 99 % of control | dose: 240.0 mg/kg/injection, schedule: Q01DX005 (ip), vehicle: Klucel (hydroxypropylcellulose) (HPC) 97 % of control

COc1cccc2c1C(=O)c1c(O)c3c(c(O)c1C2=O)CC(O)(c1csc(-c2ccccc2)n1)CC3O (configuration not stated)
inactive: [15] 106 % of control | [16] 100 % of control | [17] 109 % of control | [12] 109 % of control | [13] 103 % of control | [14] 108 % of control

Nc1cccnc1
inactive: dose: 5.0 mg/kg/injection, schedule: Q04DX003 (ip), vehicle: saline 100 % of control | dose: 10.0 mg/kg/injection, schedule: Q04DX003 (ip), vehicle: saline 100 % of control | dose: 20.0 mg/kg/injection, schedule: Q04DX003 (ip), vehicle: saline 100 % of control

CC(=O)NC1=C(Cl)C(=O)c2ccccc2C1=O
inactive: dose: 0.78 mg/kg/injection, schedule: Q01DX009 (ip), vehicle: Klucel (hydroxypropylcellulose) (HPC) 98 % of control | dose: 1.56 mg/kg/injection, schedule: Q01DX009 (ip), vehicle: Klucel (hydroxypropylcellulose) (HPC) 100 % of control | dose: 3.13 mg/kg/injection, schedule: Q01DX009 (ip), vehicle: Klucel (hydroxypropylcellulose) (HPC) 107 % of control | dose: 6.25 mg/kg/injection, schedule: Q01DX009 (ip), vehicle: Klucel (hydroxypropylcellulose) (HPC) 104 % of control and 88 % of control
